Values quoted from earlier work as cited in patent US20170335399A1, “DETECTION OF MINERALOCORTICOID RECEPTOR ACTIVATION AND PERSONALIZED ANTIHYPERTENSIVE THERAPY BASED THEREON” (The Regents of University of Michigan, priority 2014, published 2017).

Legend:
[1] = target: T1, mineralocorticoid receptor (MR) (Homo sapiens, UniProt P08235); settings: resistant hypertension; after addition of spironolactone; other studies
T1 construct: host or cells: patients with resistant hypertension (in vivo)
T1 sequence (P08235 1-984): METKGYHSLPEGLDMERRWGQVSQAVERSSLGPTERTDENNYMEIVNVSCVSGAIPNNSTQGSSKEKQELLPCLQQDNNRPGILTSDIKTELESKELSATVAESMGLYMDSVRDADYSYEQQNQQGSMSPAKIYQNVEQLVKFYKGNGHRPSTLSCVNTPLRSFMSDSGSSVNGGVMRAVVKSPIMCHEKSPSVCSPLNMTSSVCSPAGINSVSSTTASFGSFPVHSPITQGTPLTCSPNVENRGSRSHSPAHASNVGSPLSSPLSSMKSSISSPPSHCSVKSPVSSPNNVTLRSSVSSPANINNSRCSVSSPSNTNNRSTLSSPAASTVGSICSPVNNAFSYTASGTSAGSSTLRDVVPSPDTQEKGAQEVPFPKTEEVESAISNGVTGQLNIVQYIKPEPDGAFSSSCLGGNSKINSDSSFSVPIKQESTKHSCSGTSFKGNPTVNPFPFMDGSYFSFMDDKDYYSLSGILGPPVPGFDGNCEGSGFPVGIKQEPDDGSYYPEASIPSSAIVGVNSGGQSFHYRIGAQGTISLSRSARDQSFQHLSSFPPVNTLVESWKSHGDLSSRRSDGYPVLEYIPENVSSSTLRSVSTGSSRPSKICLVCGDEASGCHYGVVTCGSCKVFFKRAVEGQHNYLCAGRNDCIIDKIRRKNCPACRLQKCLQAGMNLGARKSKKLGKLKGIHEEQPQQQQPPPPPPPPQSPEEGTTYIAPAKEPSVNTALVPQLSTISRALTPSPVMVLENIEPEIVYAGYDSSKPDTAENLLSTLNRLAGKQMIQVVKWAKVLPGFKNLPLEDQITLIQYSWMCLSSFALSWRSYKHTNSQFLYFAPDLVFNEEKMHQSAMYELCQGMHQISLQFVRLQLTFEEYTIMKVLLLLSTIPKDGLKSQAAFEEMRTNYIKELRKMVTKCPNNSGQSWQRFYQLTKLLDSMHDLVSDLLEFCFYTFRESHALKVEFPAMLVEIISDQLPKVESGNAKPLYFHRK

ENaC = settings: patients treated with spironolactone
[2] = target: T1, mineralocorticoid receptor (MR); settings: resistant hypertension patients; ASPIRANT trial; placebo-corrected mean

## CC(=O)S[C@@H]1CC2=CC(=O)CC[C@]2(C)[C@H]2CC[C@@]3(C)[C@@H](CC[C@@]34CCC(=O)O4)[C@H]12 [spironolactone]
[1]
  mean reductions in systolic blood pressure: 16-26 mm Hg
ENaC
  ENaC expression on peripheral blood mononuclear cells: decreased
[2]
  mean reduction of 24-hour systolic blood pressure more than placebo: 9.8 mm Hg
